ChEMBL document CHEMBL1201862, “PubChem BioAssay data set” (2004)
Each block holds one compound with its values, some of them ahead of it. The source made the active and inactive calls.

Columns and labels:
Troponin, cardiac muscle = Troponin, cardiac muscle (Homo sapiens, UniProt P19429+P45379+P63316); assay: Fluorescence-based biochemical high throughput dose response assay for activators of the calcium sensitivity of cardiac Regulated Thin Filaments (RTF). [Related pubchem assays (depositor defined):AID493008, AID493018, AID504382, AID504383]; assay type: protein-complex assay
[1] = molecular target: C-C chemokine receptor type 6 (Homo sapiens, UniProt P51684); assay: CCR6 receptor antagonists, dose response, cell-based, luminescent beta-arrestin readout (AID 504728); assay type: functional
Beta-galactosidase = Beta-galactosidase (Escherichia coli, UniProt Q8VNN2); assay: beta-galactosidase enzyme inhibitors and activators, dose response, artefact control for CCR6 antagonist project, biochemical, E. coli enzyme, set 3 (AID 504712); assay type: functional
Sequence of Beta-galactosidase (Q8VNN2 whole entry): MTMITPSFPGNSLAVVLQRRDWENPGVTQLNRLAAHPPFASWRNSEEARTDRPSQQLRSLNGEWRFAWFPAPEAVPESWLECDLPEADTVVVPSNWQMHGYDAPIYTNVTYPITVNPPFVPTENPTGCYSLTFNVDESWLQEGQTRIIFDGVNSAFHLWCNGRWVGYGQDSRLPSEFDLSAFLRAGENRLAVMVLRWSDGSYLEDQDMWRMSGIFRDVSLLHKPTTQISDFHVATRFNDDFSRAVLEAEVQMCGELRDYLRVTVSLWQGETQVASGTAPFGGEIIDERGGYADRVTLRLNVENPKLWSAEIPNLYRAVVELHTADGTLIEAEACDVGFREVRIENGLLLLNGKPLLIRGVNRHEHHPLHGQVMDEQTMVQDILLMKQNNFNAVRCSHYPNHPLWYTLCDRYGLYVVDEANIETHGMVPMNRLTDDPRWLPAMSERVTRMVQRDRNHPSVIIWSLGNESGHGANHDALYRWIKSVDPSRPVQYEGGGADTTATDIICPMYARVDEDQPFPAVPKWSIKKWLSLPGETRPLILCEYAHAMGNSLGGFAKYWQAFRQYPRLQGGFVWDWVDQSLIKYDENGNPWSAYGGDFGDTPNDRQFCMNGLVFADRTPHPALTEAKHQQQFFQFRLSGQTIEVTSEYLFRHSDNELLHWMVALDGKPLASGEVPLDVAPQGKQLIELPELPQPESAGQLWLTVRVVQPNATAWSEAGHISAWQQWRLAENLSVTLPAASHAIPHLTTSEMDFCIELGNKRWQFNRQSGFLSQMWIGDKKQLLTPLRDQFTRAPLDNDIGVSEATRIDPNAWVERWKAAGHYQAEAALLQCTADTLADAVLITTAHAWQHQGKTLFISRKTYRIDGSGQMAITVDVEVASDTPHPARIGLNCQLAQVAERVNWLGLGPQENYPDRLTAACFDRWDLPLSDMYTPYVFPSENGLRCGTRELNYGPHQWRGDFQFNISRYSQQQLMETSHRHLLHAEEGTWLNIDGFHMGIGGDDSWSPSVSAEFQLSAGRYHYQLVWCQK

[2] = molecular target: T1, E3 ubiquitin-protein ligase XIAP (Homo sapiens, UniProt P98170); assay: Counter Screen using XIAP-Bir3 for Chemical Antagonists of Bir1/2 domains of IAP-family anti-apoptotic proteins. [Related pubchem assays (depositor defined):AID1018, AID1449, AID1514, AID1638, AID1749, AID1750, AID488957, AID488963]
T1 sequence (P98170 whole entry): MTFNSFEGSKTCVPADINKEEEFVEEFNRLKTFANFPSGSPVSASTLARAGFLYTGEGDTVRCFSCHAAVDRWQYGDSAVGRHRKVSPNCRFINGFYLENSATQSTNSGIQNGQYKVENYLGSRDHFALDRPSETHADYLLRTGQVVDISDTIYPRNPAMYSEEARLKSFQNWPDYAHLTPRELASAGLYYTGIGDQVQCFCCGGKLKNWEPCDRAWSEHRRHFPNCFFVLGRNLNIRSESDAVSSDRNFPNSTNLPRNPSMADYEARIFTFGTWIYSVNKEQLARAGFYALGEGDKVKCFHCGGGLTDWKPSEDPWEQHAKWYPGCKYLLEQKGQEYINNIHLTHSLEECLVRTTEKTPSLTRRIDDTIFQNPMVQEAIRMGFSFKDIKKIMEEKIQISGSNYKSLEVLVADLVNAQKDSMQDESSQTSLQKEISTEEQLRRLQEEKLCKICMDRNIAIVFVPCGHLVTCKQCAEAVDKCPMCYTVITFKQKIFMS

[3] = molecular target: T1, E3 ubiquitin-protein ligase XIAP; assay: XIAP antagonists, biochemical, IAP family, fluorescence polarization (AID 1018); assay type: functional
SUMO-activating enzyme [4] = molecular target: T2, SUMO-activating enzyme (Homo sapiens, UniProt Q9UBT2); assay: SUMOylation inhibitor hit validation, confirmation, SUMOylation inhibitor project, biochemical, AlphaScreen (AID 2018); assay type: functional
T2 sequence (Q9UBE0 whole entry): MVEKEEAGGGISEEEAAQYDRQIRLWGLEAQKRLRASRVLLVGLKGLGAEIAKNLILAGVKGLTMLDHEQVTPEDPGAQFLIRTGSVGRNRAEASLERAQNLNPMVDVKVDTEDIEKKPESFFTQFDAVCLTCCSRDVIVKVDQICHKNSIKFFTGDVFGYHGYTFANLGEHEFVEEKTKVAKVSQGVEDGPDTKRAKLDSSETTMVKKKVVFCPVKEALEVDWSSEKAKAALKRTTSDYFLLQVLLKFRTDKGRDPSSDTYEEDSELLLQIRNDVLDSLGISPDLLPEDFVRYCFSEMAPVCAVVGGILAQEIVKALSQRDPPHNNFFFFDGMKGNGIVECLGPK
T2 sequence (Q9UBT2 whole entry): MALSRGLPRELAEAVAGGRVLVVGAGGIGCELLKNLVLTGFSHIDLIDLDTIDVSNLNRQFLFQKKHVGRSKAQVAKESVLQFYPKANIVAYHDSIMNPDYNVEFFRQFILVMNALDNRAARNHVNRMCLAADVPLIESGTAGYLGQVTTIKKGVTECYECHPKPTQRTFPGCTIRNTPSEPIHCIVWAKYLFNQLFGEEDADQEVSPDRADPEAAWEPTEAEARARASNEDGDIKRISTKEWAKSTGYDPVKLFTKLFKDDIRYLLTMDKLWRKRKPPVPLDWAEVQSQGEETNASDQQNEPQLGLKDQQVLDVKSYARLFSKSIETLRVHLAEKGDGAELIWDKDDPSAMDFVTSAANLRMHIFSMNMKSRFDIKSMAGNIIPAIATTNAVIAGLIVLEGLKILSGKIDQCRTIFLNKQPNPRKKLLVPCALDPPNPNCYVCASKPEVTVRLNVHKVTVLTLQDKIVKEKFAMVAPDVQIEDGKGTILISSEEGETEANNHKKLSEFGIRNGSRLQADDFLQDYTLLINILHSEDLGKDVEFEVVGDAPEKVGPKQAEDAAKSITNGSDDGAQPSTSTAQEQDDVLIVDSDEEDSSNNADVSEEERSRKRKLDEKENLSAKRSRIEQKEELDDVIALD

[5] = molecular target: T3, Mannose-6-phosphate isomerase (Homo sapiens, UniProt P34949); assay: human PMI inhibitors, high substrate, primary screen, biochemical, fluorescence intensity, high mannose 6-phosphate (AID 1220)
T3 sequence (P34949 whole entry): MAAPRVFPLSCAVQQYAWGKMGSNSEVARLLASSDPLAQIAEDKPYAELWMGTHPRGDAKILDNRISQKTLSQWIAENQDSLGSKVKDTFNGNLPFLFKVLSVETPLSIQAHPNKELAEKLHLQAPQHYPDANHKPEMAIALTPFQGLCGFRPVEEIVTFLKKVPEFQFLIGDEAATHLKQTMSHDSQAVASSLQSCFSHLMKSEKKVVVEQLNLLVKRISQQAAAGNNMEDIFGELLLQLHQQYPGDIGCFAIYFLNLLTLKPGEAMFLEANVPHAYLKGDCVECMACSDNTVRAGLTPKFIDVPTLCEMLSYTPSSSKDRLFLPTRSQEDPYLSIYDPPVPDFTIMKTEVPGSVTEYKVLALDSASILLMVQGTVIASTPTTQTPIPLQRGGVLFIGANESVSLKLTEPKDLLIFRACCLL

SUMO-activating enzyme [6] = molecular target: T2, SUMO-activating enzyme; assay: inhibitors of in vitro SUMOylation cascade, primary screen, biochemical, HTRF, uHTS (AID 2006); assay type: protein-complex assay
Cytochrome P450 2C9 = Cytochrome P450 2C9 (Homo sapiens, UniProt P11712)
Sequence of Cytochrome P450 2C9 (P11712 whole entry): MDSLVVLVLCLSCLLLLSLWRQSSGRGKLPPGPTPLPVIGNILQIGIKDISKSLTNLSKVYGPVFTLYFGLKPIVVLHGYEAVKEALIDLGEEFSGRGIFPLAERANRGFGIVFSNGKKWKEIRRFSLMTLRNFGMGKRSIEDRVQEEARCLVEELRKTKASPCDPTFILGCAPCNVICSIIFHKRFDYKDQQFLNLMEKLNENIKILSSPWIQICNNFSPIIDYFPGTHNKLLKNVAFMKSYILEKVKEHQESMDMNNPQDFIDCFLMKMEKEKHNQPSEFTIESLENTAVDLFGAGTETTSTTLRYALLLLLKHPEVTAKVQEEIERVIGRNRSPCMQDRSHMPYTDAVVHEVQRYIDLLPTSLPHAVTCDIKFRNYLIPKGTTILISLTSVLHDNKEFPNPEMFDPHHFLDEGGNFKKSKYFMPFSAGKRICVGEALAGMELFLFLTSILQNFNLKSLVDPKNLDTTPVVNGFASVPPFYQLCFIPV

Cytochrome P450 1A2 = molecular target: T4, Cytochrome P450 1A2 (Homo sapiens, UniProt P05177);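 further: PubChem cytochrome P450 panel assay, CYP1A2 panel member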
T4 sequence (P05177 whole entry): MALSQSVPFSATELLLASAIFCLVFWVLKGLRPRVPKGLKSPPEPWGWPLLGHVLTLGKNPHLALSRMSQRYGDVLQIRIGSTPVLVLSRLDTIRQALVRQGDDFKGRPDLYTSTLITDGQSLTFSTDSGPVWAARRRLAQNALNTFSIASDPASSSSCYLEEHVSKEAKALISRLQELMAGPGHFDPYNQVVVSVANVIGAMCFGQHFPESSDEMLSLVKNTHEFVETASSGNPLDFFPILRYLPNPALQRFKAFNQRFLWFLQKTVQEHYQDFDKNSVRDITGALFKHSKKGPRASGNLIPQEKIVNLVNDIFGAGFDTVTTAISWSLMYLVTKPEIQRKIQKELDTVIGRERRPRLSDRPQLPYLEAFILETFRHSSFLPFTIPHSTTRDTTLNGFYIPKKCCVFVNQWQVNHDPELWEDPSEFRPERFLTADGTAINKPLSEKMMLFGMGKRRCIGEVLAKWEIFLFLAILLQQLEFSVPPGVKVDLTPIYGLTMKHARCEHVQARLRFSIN

Cytochrome P450 2C19 = Cytochrome P450 2C19 (Homo sapiens, UniProt P33261); assay: Cytochrome panel assay with activity outcomes. Panel member name: p450-cyp2c19 Compounds with AC50 equal or less than 10 uM are considered active; assay type: functional
Sequence of Cytochrome P450 2C19 (P33261 whole entry): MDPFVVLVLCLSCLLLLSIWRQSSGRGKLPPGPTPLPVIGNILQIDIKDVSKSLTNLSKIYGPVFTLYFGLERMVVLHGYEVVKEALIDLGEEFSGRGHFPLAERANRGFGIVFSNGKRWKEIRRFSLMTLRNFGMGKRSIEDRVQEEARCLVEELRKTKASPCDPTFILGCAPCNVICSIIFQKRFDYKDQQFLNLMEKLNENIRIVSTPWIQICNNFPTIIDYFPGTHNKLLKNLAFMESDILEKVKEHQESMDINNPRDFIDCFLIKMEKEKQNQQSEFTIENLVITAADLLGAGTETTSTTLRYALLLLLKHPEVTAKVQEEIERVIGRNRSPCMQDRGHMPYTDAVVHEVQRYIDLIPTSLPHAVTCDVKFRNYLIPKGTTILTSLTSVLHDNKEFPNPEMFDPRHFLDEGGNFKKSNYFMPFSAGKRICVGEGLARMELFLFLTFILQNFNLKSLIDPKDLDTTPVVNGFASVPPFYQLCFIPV

[7] = molecular target: DNA dC->dU-editing enzyme APOBEC-3G (Homo sapiens, UniProt Q9HC16); assay: Dose Response confirmation of small molecule APOBEC3G DNA Deaminase Inhibitors via a fluorescence-based single-stranded DNA deaminase assay. [Related pubchem assays (depositor defined):AID493012, AID493028]; assay type: functional
[8] = molecular target: Alkaline phosphatase, placental type (Homo sapiens, UniProt P05187); assay: PLAP enzyme inhibitors, confirmation, biochemical, luminescence (AID 1512); assay type: functional
[9] = molecular target: T5, Intestinal-type alkaline phosphatase (Mus musculus, UniProt P24822); assay: PubChem AID 488875; assay type: functional
T5 sequence (P24822 whole entry): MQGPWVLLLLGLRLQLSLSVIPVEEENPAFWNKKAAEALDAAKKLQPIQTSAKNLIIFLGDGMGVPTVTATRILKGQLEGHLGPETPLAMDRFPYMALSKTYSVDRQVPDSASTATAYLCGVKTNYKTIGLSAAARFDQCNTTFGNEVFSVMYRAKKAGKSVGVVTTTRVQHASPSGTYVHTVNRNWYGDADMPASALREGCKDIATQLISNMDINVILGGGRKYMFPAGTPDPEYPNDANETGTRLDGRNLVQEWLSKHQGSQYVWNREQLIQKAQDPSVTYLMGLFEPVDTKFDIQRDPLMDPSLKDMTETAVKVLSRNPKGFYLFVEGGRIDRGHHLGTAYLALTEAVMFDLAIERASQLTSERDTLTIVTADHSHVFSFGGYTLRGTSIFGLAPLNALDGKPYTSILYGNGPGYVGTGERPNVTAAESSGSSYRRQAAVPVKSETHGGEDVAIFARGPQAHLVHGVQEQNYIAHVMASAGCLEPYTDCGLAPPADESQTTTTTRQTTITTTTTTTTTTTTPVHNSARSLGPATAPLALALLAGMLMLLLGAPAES

[10] = molecular target: T6, Intestinal-type alkaline phosphatase (Homo sapiens, UniProt P09923); assay: human intestinal alkaline phosphatase activators, dose response, biochemical, luminescence, uHTS hits (AID 463120); assay type: functional
T6 sequence (P09923 whole entry): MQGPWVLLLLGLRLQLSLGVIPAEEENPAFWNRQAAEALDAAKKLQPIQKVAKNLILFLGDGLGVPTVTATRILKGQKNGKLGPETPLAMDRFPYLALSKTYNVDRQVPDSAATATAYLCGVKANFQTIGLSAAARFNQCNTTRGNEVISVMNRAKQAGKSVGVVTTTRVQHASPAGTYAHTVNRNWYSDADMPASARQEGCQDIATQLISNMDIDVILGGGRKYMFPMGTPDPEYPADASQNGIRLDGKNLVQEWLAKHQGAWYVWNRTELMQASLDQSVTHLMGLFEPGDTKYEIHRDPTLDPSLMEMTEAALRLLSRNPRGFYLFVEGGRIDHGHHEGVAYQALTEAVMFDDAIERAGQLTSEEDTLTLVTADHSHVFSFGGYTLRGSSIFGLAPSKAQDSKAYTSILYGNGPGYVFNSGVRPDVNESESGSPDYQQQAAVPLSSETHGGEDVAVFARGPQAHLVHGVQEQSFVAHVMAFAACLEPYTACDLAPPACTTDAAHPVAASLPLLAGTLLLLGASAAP

[11] = molecular target: T6, Intestinal-type alkaline phosphatase; assay: human IAP activators, dose response, biochemical, luminescent, uHTS hits, set 2 (AID 488817); assay type: functional;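 further: potency of activators that raise enzyme activity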
[12] = molecular target: T7, Alkaline phosphatase, tissue-nonspecific isozyme (Homo sapiens, UniProt P05186); assay: TNAP enzyme activators, dose response, selectivity assay for human IAP activator project, biochemical, TNAP isozyme, human IAP uHTS hits (AID 488886); assay type: functional;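 further: potency of compounds raising TNAP activity as a selectivity check on IAP activators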
T7 sequence (P05186 whole entry): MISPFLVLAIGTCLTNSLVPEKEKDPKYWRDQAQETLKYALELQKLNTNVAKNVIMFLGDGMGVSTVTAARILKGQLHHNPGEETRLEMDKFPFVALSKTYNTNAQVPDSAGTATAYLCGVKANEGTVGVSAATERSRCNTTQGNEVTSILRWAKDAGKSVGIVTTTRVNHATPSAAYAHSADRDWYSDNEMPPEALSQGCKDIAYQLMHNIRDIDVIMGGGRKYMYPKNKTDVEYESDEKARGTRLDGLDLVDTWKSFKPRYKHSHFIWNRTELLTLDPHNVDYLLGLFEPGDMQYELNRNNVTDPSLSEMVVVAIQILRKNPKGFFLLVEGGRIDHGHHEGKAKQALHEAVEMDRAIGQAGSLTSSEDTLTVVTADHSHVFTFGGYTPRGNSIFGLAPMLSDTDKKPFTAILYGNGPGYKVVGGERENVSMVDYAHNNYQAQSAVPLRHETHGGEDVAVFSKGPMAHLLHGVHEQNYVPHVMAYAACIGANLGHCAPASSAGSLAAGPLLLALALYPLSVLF

[13] = molecular target: T8, Short transient receptor potential channel 4 (Mus musculus, UniProt Q9QUQ5); assay: SAR Analysis for the identification of selective inhibits of the transient receptor potential cation channel C4 (TRPC4): Automated Electrophysiology_2. [Related pubchem assays (depositor defined):AID2256]; assay type: functional
T8 sequence (Q9QUQ5 whole entry): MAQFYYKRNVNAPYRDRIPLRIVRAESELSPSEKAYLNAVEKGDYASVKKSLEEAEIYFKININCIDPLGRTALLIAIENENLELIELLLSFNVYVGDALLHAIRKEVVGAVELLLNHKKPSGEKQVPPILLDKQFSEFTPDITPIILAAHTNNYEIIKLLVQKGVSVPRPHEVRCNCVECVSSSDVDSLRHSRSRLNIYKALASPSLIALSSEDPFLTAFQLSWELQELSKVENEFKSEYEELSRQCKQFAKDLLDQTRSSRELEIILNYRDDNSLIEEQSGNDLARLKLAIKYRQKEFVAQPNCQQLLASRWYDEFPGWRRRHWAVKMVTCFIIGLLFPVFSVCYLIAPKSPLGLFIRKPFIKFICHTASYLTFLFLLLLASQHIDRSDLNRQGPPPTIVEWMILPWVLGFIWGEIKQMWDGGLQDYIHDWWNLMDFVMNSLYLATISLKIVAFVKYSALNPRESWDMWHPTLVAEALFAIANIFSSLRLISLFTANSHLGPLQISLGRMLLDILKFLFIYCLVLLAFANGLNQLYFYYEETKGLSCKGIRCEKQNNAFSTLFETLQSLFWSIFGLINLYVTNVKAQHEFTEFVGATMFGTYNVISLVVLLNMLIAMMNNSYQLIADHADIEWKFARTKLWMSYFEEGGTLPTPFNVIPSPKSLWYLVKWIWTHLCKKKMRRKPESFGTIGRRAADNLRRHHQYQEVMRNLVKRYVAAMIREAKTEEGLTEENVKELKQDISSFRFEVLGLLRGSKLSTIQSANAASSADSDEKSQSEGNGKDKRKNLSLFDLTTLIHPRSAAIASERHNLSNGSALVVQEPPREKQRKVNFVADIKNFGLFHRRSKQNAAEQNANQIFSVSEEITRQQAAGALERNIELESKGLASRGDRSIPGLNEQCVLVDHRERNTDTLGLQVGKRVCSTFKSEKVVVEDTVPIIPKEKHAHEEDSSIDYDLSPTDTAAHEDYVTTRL

HEK293 [14] = assay: cells; conditions: Homo sapiens
HEK293 [15] = assay: cells; conditions: Homo sapiens; remark: listed apart in the source
[16] = molecular target: T6, Intestinal-type alkaline phosphatase; assay: Dose Response confirmation of uHTS hits from a small molecule inhibitors of human intestinal alkaline phosphatase via a luminescent assay. [Related pubchem assays (depositor defined):AID2544, AID2574]; assay type: functional
[17] = molecular target: T6, Intestinal-type alkaline phosphatase; assay: human IAP inhibitors, dose response, biochemical, luminescent, uHTS hits, set 2 (AID 488793); assay type: functional
[18] = NIH-3T3 fibroblast cytotoxicity, dose response, cytotoxicity control, cell-based, fluorescence, Alamar Blue, secondary assay (AID 2327); assay type: functional;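 further: NIH-3T3 mouse fibroblasts cultured with fluconazole at 8 µg/mL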
[19] = C. albicans growth with fluconazole, confirmation, fluorescence, retest (AID 2467); assay type: functional, cell-based
[20] = molecular target: T6, Intestinal-type alkaline phosphatase; assay: inhibition of human intestinal alkaline phosphatase – biochemical, dose response (AID 488876); assay type: functional
[21] = molecular target: T7, Alkaline phosphatase, tissue-nonspecific isozyme; assay: TNAP enzyme inhibition by screening hits, dose response, selectivity assay for mouse IAP inhibitor project, biochemical, human TNAP, uHTS hits (AID 488906); assay type: functional
[22] = molecular target: Induced myeloid leukemia cell differentiation protein Mcl-1 (Homo sapiens, UniProt Q07820); assay type: functional
Sequence of Induced myeloid leukemia cell differentiation protein Mcl-1 (Q07820 whole entry): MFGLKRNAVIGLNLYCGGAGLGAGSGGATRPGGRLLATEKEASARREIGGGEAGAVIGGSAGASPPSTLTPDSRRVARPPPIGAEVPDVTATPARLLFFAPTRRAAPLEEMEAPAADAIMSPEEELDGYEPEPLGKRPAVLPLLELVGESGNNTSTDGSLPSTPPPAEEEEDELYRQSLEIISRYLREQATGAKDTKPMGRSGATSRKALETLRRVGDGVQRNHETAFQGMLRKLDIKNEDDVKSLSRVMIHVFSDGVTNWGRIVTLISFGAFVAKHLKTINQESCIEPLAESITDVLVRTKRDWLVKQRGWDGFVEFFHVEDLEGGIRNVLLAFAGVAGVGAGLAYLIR

[23] = molecular target: T5, Intestinal-type alkaline phosphatase; assay: PubChem AID 488785; assay type: functional

EC50 (Troponin, cardiac muscle): > 71.4 µM (inactive)
SMILES: COc1cc(-c2c(-c3ccc4c(c3)OCO4)noc2C)ccc1F

IC50 [1]: > 66.6 µM (inactive) | IC50 (Beta-galactosidase): > 66.6 µM (inactive)
SMILES: CC1C(c2ccccc2)N(C)C(c2ccccc2)C(C)C1(O)C#Cc1ccccc1 (configuration not stated)

IC50 [2]: > 100 µM (inactive) | IC50 [3]: > 100 µM (not active)
SMILES: CCc1ccc(NC(=O)N2CCN(c3ccc(F)cc3)CC2)cc1

IC50 [2]: > 100 µM (inactive) | IC50 [3]: > 100 µM (not active)
SMILES: Cc1ccc(-c2nc3ccccc3c(=O)n2CCN2CCOCC2)cc1

IC50 (SUMO-activating enzyme [4]): 4.13 µM (active) | IC50 [5]: > 50 µM (not active) | IC50 (SUMO-activating enzyme [6]): 15.5 µM (active)
SMILES: O=C(O)CN1C(=O)/C(=C/c2ccc(SCc3ccccc3)o2)SC1=S

AC50 (Cytochrome P450 2C9): inconclusive | AC50 (Cytochrome P450 1A2): inconclusive | AC50 (Cytochrome P450 2C19): inconclusive
SMILES: CS(=O)(=O)N1CCC2(CC1)CN(c1ccc(-c3ccccc3)cc1)C2

SMILES: CC(=O)NC(=S)NNC(=O)C(c1ccccc1)c1ccccc1
IC50 [7]: 35.1 µM (active) | IC50 [8]: > 100 µM (inactive)

AC50 (Cytochrome P450 1A2): inactive | AC50 (Cytochrome P450 2C19): inactive
SMILES: COc1cc2nc(N3CCN(C(=O)[C@H]4COc5ccccc5O4)CC3)nc(N)c2cc1OC.CS(=O)(=O)O

EC50 [9]: > 100 µM (inactive) | EC50 [10]: 6.37 µM (active) | EC50 [11]: 12.3 µM (active) | EC50 [12]: 11 µM (active)
SMILES: CC(=O)Nc1cccc(C(=O)NNC(=O)c2nnc(O)c3ccccc23)c1

IC50 [13]: 9.89 µM (active)
SMILES: COc1ccccc1N1CCN(c2cc(C)c3ccccc3n2)CC1

SMILES: O=C(Nc1ccccc1Cl)c1ccccc1CC(O)(c1ccccc1)c1ccccc1
EC50 (HEK293 [14]): > 59.7 µM (inactive) | EC50 (HEK293 [15]): > 59.7 µM (inactive)

SMILES: Cc1[nH]n(-c2nc(-c3ccccc3)cc(=O)[nH]2)c(=O)c1CCO
EC50 [9]: > 100 µM (inactive) | IC50 [16]: 2.82 µM (active) | EC50 [12]: 30.7 µM (active) | IC50 [17]: 2.36 µM (active)

SMILES: Cc1ccc(/C=C2\SC(=S)N(/N=C/c3cc([N+](=O)[O-])ccc3O)C2=O)o1
IC50 (SUMO-activating enzyme [4]): 0.35 µM (active) | EC50 [18]: > 150 µM (inactive) | EC50 [19]: 27.8 µM (active) | IC50 [20]: 80 µM (active) | IC50 [21]: > 100 µM (inactive) | IC50 [22]: 1.53 µM (active) | IC50 [23]: 61.9 µM (active) | IC50 (SUMO-activating enzyme [6]): 4.54 µM (active)

EC50 (Troponin, cardiac muscle): > 71.5 µM (inactive)
SMILES: NC(=O)C1CCN(C(=O)c2ccc(-c3ccccc3)cc2)CC1
